Experimental data from patent US9320748B2, “Immunologically useful arginine salts” (Novartis AG, priority 2012, dated 2016).
Where “and” joins values, the source holds several entries; their conditions need not be identical. Equal entries are not always repeated. Structures can show the parent of a compound that is named as a salt.

Columns and labels:
[1] = Photo-stability of bulk solid; assay type: physicochemical; conditions: irradiated 1.2 million lux-hours, 40° C., 36 hours
Protocol: The L-arginine salt formed via the above method was tested for thermal- and photo-stability. For comparative purposes, the free base and the ammonium salt were also tested.
The bulk ammonium and arginine salts and the bulk free base of the compound of formula (I) were tested for photo-stability by being irradiated (1.2 million lux-hours), at 40° C. for a period of 36 hours.

[2] = Adsorption to calcium phosphate adjuvant; assay type: physicochemical; conditions: pH 6.4, no histidine buffer, 1.12 mg/ml Ca2+
Protocol: Adsorption of a L-arginine salt of the compound of formula (I) to a commercially-available calcium phosphate adjuvant was studied at pH 6.4, without histidine buffer. Two formulations are prepared, both with 1.12 mg/ml Ca^2+ but with either 0.25 mg/ml or 0.125 mg/ml of the arginine salt. Adsorption was around 90% for both formulations.

[3] = Adsorption to aluminium phosphate adjuvant; assay type: physicochemical
Protocol: Adsorption of a L-arginine salt of the compound of formula (I) to a commercially-available aluminium phosphate adjuvant yielded an adsorption efficiency of 97% (as found by recovering the compound of formula (I) on desorption). […] However, the adsorption remained >90% when the aluminium phosphate adjuvant was treated with 10 mM potassium phosphate.
One formulation was prepared with 0.4 mg/ml of the compound of formula (I) of the L-arginine salt and 3 mg/ml of aluminium phosphate (expressed as Al^3+ concentration), 10 mM of histidine buffer (pH 6.5). Aluminium phosphate was treated overnight with various concentrations of potassium phosphate (10 mM, 50 mM, 100 mM, 250 mM and 500 mM) before the compound of formula (I) of the arginine salt was incubated with the aluminium phosphate.

[4] = tested on: respiratory syncytial virus (RSV); experiment: Anti-RSV titers after immunisation with trimeric F glycoprotein; assay type: in vivo, Balb/C mice; conditions: 3 weeks after first dose; 1, 5, 50 μg SMIP adsorbed to Al—H, 3 μg F glycoprotein
Protocol: Trimeric F glycoprotein (3 μg) of respiratory syncytial virus (RSV) is formulated with the compound of formula (I) as a free base or as the arginine salt (1 μg, 5 μg, 50 μg) adsorbed to Al—H. For comparison the IC31™ adjuvant is also tested. Balb/C mice (6 per group) are immunized at days 0 and 21 and immune responses are assessed.

[5] = Thermal-stability at physiological pH; assay type: physicochemical; conditions: for degradation (thermal-stability): physiological pH (7.4), 80° C., 7 days
Protocol: The L-arginine salt formed via the above method was tested for thermal- and photo-stability. For comparative purposes, the free base and the ammonium salt were also tested. The bulk ammonium and arginine salts and the bulk free base of the compound of formula (I) were also tested for thermal-stability at physiological pH (7.4) by heating at 80° C. for 7 days. […] This renders the ammonium salt unsuitable for use in pharmaceutical formulation and long term storage.

[6] = Dynamic vapour sorption (DVS) water sorption; assay type: physicochemical; conditions: 90% relative humidity
Protocol: Dynamic vapour sorption (DVS) experiments were conducted on the L-arginine salt obtained via the above method. […] The free base is also shown for comparison (●). DSC analysis of the arginine salt following DVS treatment was also conducted and the results pre- (♦) and post-DVS (▪) treatment are shown in FIG. 4. The free base is also shown for comparison (●). […] No form change is noted by the XRPD.

[7] = Adsorption to aluminium hydroxide (RP-HPLC); assay type: physicochemical; conditions: 1 mg/ml on 3 mg/ml aluminium hydroxide
Protocol: The adsorption efficiency of the compound was determined by RP-HPLC as being 99%.

[8] = Photo-stability in 50 mM phosphate buffer solution; assay type: physicochemical; conditions: 50 mM phosphate buffer pH 6.8; irradiated 1.2 million lux-hours, 40° C., 36 hours
Protocol: The L-arginine salt formed via the above method was tested for thermal- and photo-stability. For comparative purposes, the free base and the ammonium salt were also tested. The arginine salt and the bulk free base of the compound of formula (I) were also tested for photo-stability in a solution of 50 mM phosphate buffer (pH 6.8) by being irradiated (1.2 million lux-hours), at 40° C. for a period of 36 hours. […] The ammonium salt was not tested.

[9] = in vivo; conditions: mouse, im, 4 mg/kg
Protocol: A single dose of two different formulations (one containing the free base and the other the L-arginine salt of the compound of formula (I)) adsorbed to Al—H in 10 mM histidine buffer and in the presence of 3 MenB antigens were administered intramuscularly to mice at a dose of 4 mg/kg.

[10] = Effect of Al—H adsorption on serum peak and injection-site residence; assay type: in vivo; conditions: adsorbed on Al—H versus non-adsorbed; mice and rats
Text: Adsorption of the compound of formula (I) on Al—H reduced its peak serum concentrations and increased residence times at sites of intramuscular injection, as found for mice and rats preclinical species. This contributes greatly on modifying and controlling the level of systemic exposure avoiding the potential problem of proinflammatory cytokines in the blood, improving safety and/or tolerability of the compounds of formula (I).

Cc1cc(OCCOCCOCCP(=O)(O)O)ccc1CCc1cnc2c(N)nc3cc(CCC(=O)O)ccc3c2c1 [ammonium salt]
degradation (photo-stability) [1]: 4.6%

Cc1cc(OCCOCCOCCP(=O)(O)O)ccc1CCc1cnc2c(N)nc3cc(CCC(=O)O)ccc3c2c1 [arginine salt, arginine salt of 3-(5-amino-2-(2-methyl-4-(2-(2-(2-phosphonoethoxyl)ethoxy)ethoxy)phenethyl)benzo[f][1,7]naphthyridin-8-yl)propanoic acid]
Adsorption ([2]; 0.125 mg/ml arginine salt): around 90% | Adsorption ([2]; 0.25 mg/ml arginine salt): around 90% | % Adsorption ([3]; aluminium phosphate pre-treated with 10 mM potassium phosphate, listed as L-arginine salt): 93 ± 1% | % Adsorption ([3]; aluminium phosphate pre-treated with 50 mM potassium phosphate): 81.6 ± 0.1% | % Adsorption ([3]; aluminium phosphate pre-treated with 100 mM potassium phosphate): 60 ± 2% | % Adsorption ([3]; aluminium phosphate pre-treated with 250 mM potassium phosphate): 52 ± 0.1% | % Adsorption ([3]; aluminium phosphate pre-treated with 500 mM potassium phosphate): 65 ± 4% | % Adsorption ([3]; aluminium phosphate, no potassium phosphate pre-treatment (0 mM), 0.4 mg/ml compound, 3 mg/ml Al3+, 10 mM histidine pH 6.5, listed as L-arginine salt): 97% and 97 ± 1% | anti-RSV titers versus Al—H alone [4]: increased compared to Al—H alone | anti-RSV titers, arginine salt versus free base [4]: slightly higher titers than the free base | degradation (photo-stability) [1]: 9.7% | stability at high temperatures, compared with other form ([5]; high temperatures (80° C.), as in autoclaving): more stable than the ammonium salt | degradation (thermal-stability) [5]: 0.1% | water taken on (DVS) [6]: approximately 18% | water taken on (DVS) ([6]; 4 g sample): approximately 13.71% | adsorption efficiency [7]: 99% | degradation (photo-stability in solution) [8]: 9.8%

Cc1cc(OCCOCCOCCP(=O)(O)O)ccc1CCc1cnc2c(N)nc3cc(CCC(=O)O)ccc3c2c1 [free base, 3-(5-amino-2-(2-methyl-4-(2-(2-(2-phosphonoethoxy)ethoxy)ethoxy)phenethyl)benzo[f][1,7]naphthyridin-8-yl)propanoic acid]
anti-RSV titers versus Al—H alone [4]: increased compared to Al—H alone | degradation (photo-stability) [1]: 12.36% | degradation (thermal-stability) [5]: 18.1% | degradation (photo-stability in solution) [8]: 23.1% | AUC(0-t) [9]: 4.54 µM·h | Cmax [9]: 0.453 µM | Tmax [9]: 0.67 h | half-life [9]: 8.48 h | peak serum concentrations [10]: reduced | residence times at sites of intramuscular injection [10]: increased
